Data reported in publication PMC6273429, “Pharmacokinetics of Tyrosol Metabolites in Rats” (Molecules, 2016).
Like-named read-outs stand apart in the source and are kept apart here. Values belong to the compound of their own block, whether it stands above or below them.

Assays:
[1] = Pharmacokinetics of tyrosol metabolites in rat plasma after single oral dose of tyrosol (HPLC); type: in vivo, Sprague-Dawley rats; details: for Cmax / Tmax / half-life / AUC(0-t): male, Sprague-Dawley; for AUC(0-t): n = 3, read-out: AUC (0-8h)
Method: To understand the time-dependent changes in the concentration of tyrosol metabolites, the level of metabolites in plasma samples was measured by HPLC at different time points (15, 30, 60, 120, and 240 min) after tyrosol administration. […] The inter- and intra-day precision and accuracy were determined by replicate analysis of the samples at two concentrations of each metabolite: 0.1 and 2 mg/mL tyrosol-4-sulfate. The stability of the metabolites was determined at room temperature over 24 h.
(§1) Male Sprague-Dawley rats with average weights of 250 g were purchased from Orient Bio Inc. (Seoul, Korea) and acclimatized to laboratory conditions comprising a 12:12 h light-dark cycle, temperature of 24 °C, and humidity of 55% for one week. Animals were fed AIN-93G diet and provided water ad libitum during acclimation. On the dosing day, the rats were gavaged with tyrosol (100 or 200 mg/kg) as a suspension in polyethylene glycol. After the oral administration of a single dose of tyrosol to rats, blood samples were collected from the eye of the rats at different time points after dosing (0.25, 0.5, 1, 2, 4, 8, and 16 h). Urine samples were collected just before administration of tyrosol and during 0–1, 1–2, 2–4, 4–8, and 8–24 h after dosing. Liver, lung, heart, spleen, kidney, and epididymal adipose tissues were excised as quickly as possible and stored frozen at −80 °C until use. Animal studies were conducted in accordance with our institutional and national guidelines, and all experimental procedures were approved by the Korea Food Research Institute Animal Care and Use Committee (KFRI-IACUC, #2015-0016).
To 300 µL of serum, 700 µL of methanol was added, followed by vortex mixing for 5 min. After centrifugation at 13,000 rpm for 15 min, the supernatant was collected and injected into the HPLC or LC-MS system.
(§2) HPLC analyses were performed on a Jasco high-performance liquid chromatography (HPLC) system (Jasco Corporation, Tokyo, Japan) equipped with a Jasco UV-2089 plus quaternary gradient pump, Jasco AS-2057 plus intelligent sample injector, Jasco UV-2075 UV/Vis detector, and Borwin chromatography software version 1.5. Separation was achieved using an XTerra RP18 column (4.6 × 250 mm, 5 µM, Waters) and a guard column. Elution was performed at a flow rate of 1.0 mL/min at 30 °C. The solvents for eluent were 1% (v/v) phosphoric acid (solvent A) and acetonitrile (solvent B). The solvent gradient changed according to the following conditions: 100% A to 95% A over 10 min, to 85% A over 10 min, to 70% A over 10 min, to 65% A over 5 min, to 90% A over 5 min, and to 100% A over 5 min, followed by 5 min of maintenance. The UV detector was set at a wavelength of 280 nm.
(§3) A non-compartmental pharmacokinetics analysis for each tyrosol metabolite was performed using PK solution software version 2.0 (Summit Research Services, Montrose, CO, USA). Cmax, Tmax, and T1/2 were estimated from the plasma concentration-time curve. The area under the curve (AUC) for the plasma concentration over time was calculated using the trapezoidal rule.

[2] = Pharmacokinetics of tyrosol metabolites in rat urine after single oral dose of tyrosol (HPLC); type: in vivo, Sprague-Dawley rats; details: for Tmax / half-life: male, Sprague-Dawley; for Tmax: rat, urine, po
Method: Urine samples were collected at 0–1, 1–2, 2–4, 4–8, and 8–24 h after administration of tyrosol.
as §1, §2, §3

[3] = Tissue distribution of tyrosol-derived metabolites after oral administration of tyrosol; type: in vivo, Sprague-Dawley rats
Method: To study the tissue distribution of tyrosol metabolites, organs were collected at different time points following oral administration of tyrosol. T4S and M2 were detected in each tissue within 1 h after tyrosol administration (Figure 5A,B). […] These findings indicate that the metabolites are mainly excreted by the kidneys through the liver. Specifically, we propose that the rapid uptake of tyrosol is followed by its sulfation in the liver.
Figure 5 Tissue distribution of tyrosol-4-sulfate (A) and M2 (B). Tissue samples (heart, kidney, spleen, lung, liver, epididymal adipose tissue) were collected at different time intervals post-dosing (0, 0.5, 1, 2, 4, 8, and 16 h) and the concentration of tyrosol-4-sulfate and M2 was measured. Each point represents mean ± SD (n = 3).
as §1
Each tissue was thawed, rinsed with ice-cold saline, blotted dry, weighed, and homogenized (1:1, w/v) in water using homogenizer (MP Fastprep instrument, MP Biomedical, Solon, OH, USA). The homogenates (300 µL) were transferred into clean tubes, methanol (700 µL) was added, and the tubes were vortex-mixed for 5 min. The supernatant was collected after centrifugation at 13,000 rpm for 15 min. The supernatant was evaporated to dryness at room temperature under a stream of nitrogen gas. The residue was resuspended in methanol (100 µL).
as §2

[4] = tested on: human hepatoma HepG2 cells; parameters: method as in PMID 16366672; details: cited from earlier work

time of uptake after oral administration of tyrosol [1]: ≤ 1 h
Cmax ([1]; tyrosol oral 100 mg/kg b.w.): 7900 ng/mL
Tmax ([1]; tyrosol oral 100 mg/kg b.w.): 0.178 h
half-life ([1]; tyrosol oral 100 mg/kg b.w.): 0.23 h
AUC(0-t) ([1]; tyrosol oral 100 mg/kg b.w.): 2500 ng·h/mL
Cmax ([1]; tyrosol oral 200 mg/kg b.w.): 12100 ng/mL
Tmax ([1]; tyrosol oral 200 mg/kg b.w.): 0.177 h
half-life ([1]; tyrosol oral 200 mg/kg b.w.): 0.202 h
AUC(0-t) ([1]; tyrosol oral 200 mg/kg b.w.): 6600 ng·h/mL
time by which eliminated in urine ([2]; after oral tyrosol): ≤ 12 h
Tmax ([2]; 100 mg/kg, tyrosol oral 100 mg/kg b.w., read-out: Tmax): 2 h
Tmax ([2]; 200 mg/kg, tyrosol oral 200 mg/kg b.w., read-out: Tmax): 2.9 h
Tmax ([2]; 200 mg/kg, tyrosol oral 100 and 200 mg/kg, read-out: Tmax in urine (range over doses)): 2 to 2.9 h
half-life ([2]; tyrosol oral 100 mg/kg b.w.): 1.2 h
half-life ([2]; tyrosol oral 200 mg/kg b.w.): 1.2 h
time to detection in each tissue ([3]; rat tissues after oral tyrosol): ≤ 1 h
detection in epididymal fat and the lungs ([3]; rat, after oral tyrosol): not detected
time of elimination from organs and tissues ([3]; rat, after oral tyrosol): ≤ 4 h
tissues of greatest deposition / highest concentration by tissue weight ([3]; rat, after oral tyrosol): liver, followed by the kidney and spleen
tissues of greatest deposition / highest concentration by tissue weight ([3]; rat, after oral tyrosol, listed as tyrosol-4-sulfate): liver and the kidney
Compound: O=S(=O)(O)Oc1ccc(CCO)cc1 [T4S, tyrosol-4-sulfate]

Compound: OCCc1ccc(O)cc1 [Tyrosol]
detection of sulfated metabolites [4]: no detection
metabolism to glucuronide conjugates [4]: poorly metabolized
